Measurements as given in patent US10933063B2 (priority 2017, dated 2021).

Biological target: BTK (Homo sapiens (Human), UniProt Q06187)
Assay: biochemical

BTK, sequence (Q06187 whole entry, looked up, species assumed): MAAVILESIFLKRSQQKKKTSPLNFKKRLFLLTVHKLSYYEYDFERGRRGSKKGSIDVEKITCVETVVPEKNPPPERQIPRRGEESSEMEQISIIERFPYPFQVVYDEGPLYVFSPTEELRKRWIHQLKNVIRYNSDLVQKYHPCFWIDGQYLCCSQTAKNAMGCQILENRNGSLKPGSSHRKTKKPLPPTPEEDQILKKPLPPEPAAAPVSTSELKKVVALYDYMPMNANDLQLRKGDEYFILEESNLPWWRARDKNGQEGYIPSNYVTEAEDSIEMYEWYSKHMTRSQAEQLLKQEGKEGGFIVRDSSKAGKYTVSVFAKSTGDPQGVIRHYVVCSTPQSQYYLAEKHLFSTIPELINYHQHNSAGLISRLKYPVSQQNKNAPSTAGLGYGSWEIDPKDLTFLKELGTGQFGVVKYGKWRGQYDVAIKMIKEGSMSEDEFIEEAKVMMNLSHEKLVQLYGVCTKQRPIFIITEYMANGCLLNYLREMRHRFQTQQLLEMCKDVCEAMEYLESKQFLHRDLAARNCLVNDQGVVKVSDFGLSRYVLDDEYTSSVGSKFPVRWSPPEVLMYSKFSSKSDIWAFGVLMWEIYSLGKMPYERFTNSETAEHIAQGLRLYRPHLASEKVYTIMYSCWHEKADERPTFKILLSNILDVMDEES

SMILES | IC50 [nM]
COc1cccc(Oc2ccc(-c3nc([C@@H]4CCC5CCC(=O)N5C4)n4ccncc34)cc2)c1F (stereo partly drawn) [Example 213, (6R)-6-(1-(4-(2-fluoro-3-methoxyphenoxy)phenyl)imidazo[1,5-a]pyrazin-3-yl)hexahydroindolizin-3(2H)-one] | 100 to 1000
CC#CC(=O)N1CCC[C@H]1c1nc(-c2ccc(Oc3ccccc3)cc2Cl)c2cnccn12 [Example 14, (S)-1-(2-(1-(2-chloro-4-phenoxyphenyl)imidazo[1,5-a]pyrazin-3-yl)pyrrolidin-1-yl)but-2-yn-1-one] | 1000 to 10000
CC#CC(=O)N1CC[C@@H](c2nc(-c3ccc(Oc4cccc(OC)c4F)cc3)c3c(CCC)nccn23)C1 [Example 110, (R)-1-(3-(1-(4-(2-fluoro-3-methoxyphenoxy)phenyl)-8-propylimidazo[1,5-a]pyrazin-3-yl)pyrrolidin-1-yl)but-2-yn-1-one] | 1000 to 10000
CC#CC(=O)N1CCCC[C@H]1c1nc(-c2ccc(Oc3cccc(Cl)c3F)cc2)c2c(C)nccn12 [Example 43, (S)-1-(2-(1-(4-(3-chloro-2-fluorophenoxy)phenyl)-8-methylimidazo[1,5-a]pyrazin-3-yl)piperidin-1-yl)but-2-yn-1-one] | 10 to 100
CC#CC(=O)N1CC[C@@H](c2nc(-c3ccc(Oc4cccc(OC)c4F)cc3)c3cncc(OC4CCC4)n23)C1 [Example 101, (R)-1-(3-(5-cyclobutoxy-1-(4-(2-fluoro-3-methoxyphenoxy)phenyl)imidazo[1,5-a]pyrazin-3-yl)pyrrolidin-1-yl)but-2-yn-1-one] | 10 to 100
CC#CC(=O)N1CCC[C@H]1c1nc(-c2ccc(COc3ccc(F)cc3)cc2)c2cnccn12 [Example 128, (S)-1-(2-(1-(4-((4-fluorophenoxy)methyl)phenyl)imidazo[1,5-a]pyrazin-3-yl)pyrrolidin-1-yl)but-2-yn-1-one] | 1000 to 10000
C=CC(=O)N1CCCC[C@H]1c1nc(-c2ccc(C(=O)Nc3cc(C(F)(F)F)ccn3)cc2)c2c(C(F)(F)F)nccn12 [Example 201, (S)-4-(3-(1-acryloylpiperidin-2-yl)-8-(trifluoromethyl)imidazo[1,5-a]pyrazin-1-yl)-N-(4-(trifluoromethyl)pyridin-2-yl)benzamide] | 1000 to 10000
CC#CC(=O)N1CCCC[C@H]1c1nc(-c2ccc(Oc3cccc(OC)c3F)cc2)c2cnccn12 [Example 25, (S)-1-(2-(1-(4-(2-fluoro-3-methoxyphenoxy)phenyl)imidazo[1,5-a]pyrazin-3-yl)piperidin-1-yl)but-2-yn-1-one] | 10 to 100
CC#CC(=O)N1CC[C@@H](c2nc(-c3ccc(C(=O)Nc4ccccn4)cc3)c3cncc(OCC)n23)C1 [Example 193, (R)-4-(3-(1-(but-2-ynoyl)pyrrolidin-3-yl)-5-ethoxyimidazo[1,5-a]pyrazin-1-yl)-N-(pyridin-2-yl)benzamide] | 100 to 1000
CC#CC(=O)N1CCCC[C@H]1c1nc(-c2ccc(Oc3cccc(OC)c3)cc2)c2cnccn12 [Example 59, (S)-1-(2-(1-(4-(3-methoxyphenoxy)phenyl)imidazo[1,5-a]pyrazin-3-yl)piperidin-1-yl)but-2-yn-1-one] | 100 to 1000
C=CC(=O)N1CCCC[C@H]1c1nc(-c2ccc(Oc3cccc(OC)c3)cc2)c2cnccn12 [Example 58, (S)-1-(2-(1-(4-(3-methoxyphenoxy)phenyl)imidazo[1,5-a]pyrazin-3-yl)piperidin-1-yl)prop-2-en-1-one] | 10 to 100
CC#CC(=O)N1CCCC[C@H]1c1nc(-c2ccc(C(=O)Nc3ccccn3)cc2)c2cnccn12 [Example 169, (S)-4-(3-(1-(but-2-ynoyl)piperidin-2-yl)imidazo [1,5-a]pyrazin-1-yl)-N-(pyridin-2-yl)benzamide] | 100 to 1000
CC#CC(=O)N1CCC[C@H]1c1nc(-c2ccc(Oc3cccc(OC)c3F)cc2)c2c(C)nccn12 [Example 57, (S)-1-(2-(1-(4-(2-fluoro-3-methoxyphenoxy)phenyl)-8-methylimidazo[1,5-a]pyrazin-3-yl)pyrrolidin-1-yl)but-2-yn-1-one] | 10 to 100
CC#CC(=O)N1CCC[C@H]1c1nc(-c2ccc(OCc3c(F)cccc3F)cc2)c2cnccn12 [Example 137, (S)-1-(2-(1-(4-((2,6-difluorobenzyl)oxy)phenyl)imidazo[1,5-a]pyrazin-3-yl)pyrrolidin-1-yl)bul-2-yn-1-one] | 1000 to 10000
CC#CC(=O)N1CCCC[C@H]1c1nc(-c2ccc(Oc3cccc(Cl)c3F)cc2)c2cnccn12 [Example 47, (S)-1-(2-(1-(4-(3-chloro-2-fluorophenoxy)phenyl)imidazo[1,5-a]pyrazin-3-yl)piperidin-1-yl)but-2-yn-1-one] | 100 to 1000
CC#CC(=O)N1CCC[C@H]1c1nc(-c2ccc(COc3ccc(F)c(F)c3)cc2)c2cnccn12 [Example 132, (S)-l-(2-(1-(4-((3,4-difluorophenoxy)methyl)phenyl)imidazo[1,5-a]pyrazin-3-yl)pyrrolidin-1-yl)but-2-yn-1-one] | 1000 to 10000
C=CC(=O)N1CCCC[C@H]1c1nc(-c2ccc(Oc3cccc(OC)c3F)cc2)c2cncc(C)n12 [Example 78, (S)-1-(2-(1-(4-(2-fluoro-3-methoxyphenoxy)phenyl)-5-methylimidazo[1,5-a]pyrazin-3-yl)piperidin-1-yl)prop-2-en-1-one] | 10 to 100

SMILES | IC50 [nM]
CC#CC(=O)N1CCCC[C@H]1c1nc(-c2ccc(COc3cccc(F)c3F)cc2)c2cnccn12 [Example 159, (S)-1-(2-(1-(4-((2,3-difluorophenoxy)methyl)phenyl)imidazo[1,5-a]pyrazin-3-yl)piperidin-1-yl)but-2-yn-1-one] | 1000 to 10000
C=CC(=O)N1CCCC[C@H]1c1nc(-c2ccc(COc3cccc(F)c3)cc2)c2c(C)nccn12 [Example 156, (S)-1-(2-(1-(4-((3-fluorophenoxy)methyl)phenyl)-8-methylimidazo[1,5-a]pyrazin-3-yl)piperidin-1-yl)prop-2-en-1-one] | 10 to 100
C=CC(=O)N1CCC[C@H]1c1nc(-c2ccc(Oc3ccccc3)nc2)c2cnccn12 [Example 4, (S)-1-(2-(1-(6-Phenoxypyridin-3-yl)imidazo[1,5-a]pyrazin-3-yl)pyrrolidin-1-yl)prop-2-en-1-one] | 100 to 1000
C=CC(=O)N1CCC[C@H]1c1nc(-c2ccc(Oc3ccccc3OC)cc2)c2cnccn12 [Example 23, (S)-1-(2-(1-(4-(2-methoxyphenoxy)phenyl)imidazo[1,5-a]pyrazin-3-yl)pyrrolidin-1-yl)prop-2-en-1-one] | 10 to 100
CC#CC(=O)N1CCC[C@H]1c1nc(-c2ccc(C(=O)Nc3ccccn3)cc2)c2cnccn12 [Example 166, (S)-4-(3-(1-(but-2-ynoyl)pyrrolidin-2-yl)imidazo[1,5-a]pyrazin-1-yl)-N-(pyridin-2-yl) benzamide] | 1000 to 10000
CC#CC(=O)N1CCC[C@H]1c1nc(-c2ccc(COc3cccc(F)c3)cc2)c2cnccn12 [Example 147, (S)-1-(2-(1-(4-((3-fluorophenoxy)methyl)phenyl)imidazo[1,5-a]pyrazin-3-yl)pyrrolidin-1-yl)but-2-yn-1-one] | 1000 to 10000
C=CC(=O)N1CCC[C@H]1c1nc(-c2ccc(OCc3cccc(F)c3)cc2)c2cnccn12 [Example 135, (S)-1-(2-(1-(4-((3-fluorobenzyl)oxy)phenyl)imidazo[1,5-a]pyrazin-3-yl)pyrrolidin-1-yl)prop-2-en-1-one] | 10 to 100
C=CC(=O)N1CCC[C@H]1c1nc(-c2ccc(COc3ccccc3F)cc2)c2cnccn12 [Example 125, (S)-(2-(1-(4-((2-fluorophenoxy)methyl)phenyl)imidazo[1,5-a]pyrazin-3-yl)pyrrolidin-1-yl)prop-2-en-1-one] | 10 to 100
CC#CC(=O)N1CCC[C@H]1c1nc(-c2ccc(C(=O)Nc3ccccn3)cc2)c2c(C)ncc(C)n12 [Example 175, (S)-4-(3-(1-(but-2-ynoyl)pyrrolidin-2-yl)-5,8-dimethylimidazo[1,5-a]pyrazin-1-yl)-N-(pyridin-2-yl)benzamide] | 100 to 1000
CC#CC(=O)N1CC[C@@H](c2nc(-c3ccc(C(=O)Nc4cc(C(F)(F)F)ccn4)cc3F)c3cnccn23)C1 [Example 212, (R)-4-(3-(1-(but-2-ynoyl)pyrrolidin-3-yl)imidazo [1,5-a]pyrazin-1-yl)-3-fluoro-N-(4-(trifluoromethyl)pyridin-2-yl)benzamide] | 10 to 100
C=CC(=O)N1CCC[C@H]1c1nc(-c2ccc(Oc3cccc(C)c3C)cc2)c2cnccn12 [Example 12, (S)-1-(2-(1-(4-(2,3-dimethylphenoxy)phenyl)imidazo[1,5-a]pyrazin-3-yl)pyrrolidin-1-yl)prop-2-en-1-one] | 10 to 100
CC#CC(=O)N1CC[C@@H](c2nc(-c3ccc(Oc4cccc(OC)c4F)cc3)c3c(CO)nccn23)C1 [Example 119, (R)-1-(3-(1-(4-(2-fluoro-3-methoxyphenoxy)phenyl)-8-(hydroxymethyl)imidazo[1,5-a]pyrazin-3-yl)pyrrolidin-1-yl)but-2-yn-1-one] | 10 to 100
CC#CC(=O)N1CC[C@@H](c2nc(-c3ccc(Oc4cccc(OC)c4F)cc3)c3cncc(OC(C)C)n23)C1 [Example 115, (R)-1-(3-(1-(4-(2-fluoro-3-methoxyphenoxy)phenyl)-5-isopropoxyimidazo[1,5-a]pyrazin-3-yl)pyrrolidin-1-yl)but-2-yn-1-one] | 100 to 1000
CC#CC(=O)N1CCCC[C@H]1c1nc(-c2ccc(COc3ccc(F)c(F)c3)cc2)c2c(C)nccn12 [Example 151, (S)-1-(2-(1-(4-((3,4-difluorophenoxy)methyl)phenyl)-8-methylimidazo[1,5-a]pyrazin-3-yl)piperidin-1-yl)but-2-yn-1-one] | 100 to 1000
C=CC(=O)N1CCCC[C@H]1c1nc(-c2ccc(Oc3cccc(F)c3)cc2)c2cnccn12 [Example 45, (S)-1-(2-(1-(4-(3-fluorophenoxy)phenyl)imidazo[1,5-a]pyrazin-3-yl)piperidin-1-yl)prop-2-en-1-one] | 10 to 100
CC#CC(=O)N1CCC[C@@H](c2nc(-c3ccc(C(=O)Nc4ccccn4)cc3)c3cncc(C)n23)C1 [Example 179, (R)-4-(3-(1-(but-2-ynoyl)piperidin-3-yl)-5-methylimidazo[1,5-a]pyrazin-1-yl)-N-(pyridin-2-yl)benzamide] | 1000 to 10000
CC#CC(=O)N1CCC[C@H]1c1nc(-c2ccc(Oc3cccc(OC)c3F)cc2)c2cncc(C)n12 [Example 63, (S)-1-(2-(1-(4-(2-fluoro-3-methoxyphenoxy)phenyl)-5-methylimidazo[1,5-a]pyrazin-3-yl)pyrrolidin-1-yl)but-2-yn-1-one] | 100 to 1000
